Columns and labels:
[1] = Selectivity index, ratio of CC50 for BHK21 cells to IC50 for Candida parapsilosis ATCC 22019; assay type: toxicity; details: hamster, read-out: Ratio CC50/IC50
Candida parapsilosis = assay: Antifungal activity against Candida parapsilosis ATCC 22019 after 24 hrs by CLSI broth microdilution method; assay type: functional, organism-based; details: Lodderomyces parapsilosis, ATCC 22019, 24 h
[2] = Selectivity index, ratio of CC50 for BHK21 cells to IC50 for Candida glabrata ATCC 90030; assay type: toxicity; details: hamster, read-out: Ratio CC50/IC50
Pichia kudriavzevii = assay: Antifungal activity against Candida krusei ATCC 6258 after 24 hrs by CLSI broth microdilution method; assay type: functional, organism-based; details: ATCC 6258, 24 h
[3] = Selectivity index, ratio of CC50 for BHK21 cells to IC50 for Candida albicans ATCC 10231; assay type: toxicity; details: hamster, read-out: Ratio CC50/IC50
Platelet [4] = assay: Antiplatelet activity in rabbit platelet rich plasma assessed as inhibition of PAF-induced platelet aggregation at 150 uM preincubated for 3 mins followed by PAF addition measured after 10 mins relative to control; assay type: functional; details: Oryctolagus cuniculus
Platelet [5] = assay: Antiplatelet activity in rabbit platelet rich plasma assessed as inhibition of PAF-induced platelet aggregation at 300 uM preincubated for 3 mins followed by PAF addition measured after 10 mins relative to control; assay type: functional; details: Oryctolagus cuniculus
Staphylococcus aureus = assay: Antibacterial activity against Staphylococcus aureus ATCC 6538 after 24 hrs by CLSI broth microdilution method; assay type: functional, organism-based; details: ATCC 6538, 24 h
[6] = Selectivity index, ratio of CC50 for BHK21 cells to IC50 for Staphylococcus aureus ATCC 6538; assay type: toxicity; details: hamster, read-out: Ratio CC50/IC50
Platelet [7] = assay: Antiplatelet activity in rabbit platelet rich plasma assessed as inhibition of arachidonic acid-induced platelet aggregation at 300 uM preincubated for 3 mins followed by arachidonic acid addition measured after 10 mins relative to control; assay type: functional; details: Oryctolagus cuniculus
Platelet [8] = assay: Antiplatelet activity in rabbit platelet rich plasma assessed as inhibition of arachidonic acid-induced platelet aggregation at 150 uM preincubated for 3 mins followed by arachidonic acid addition measured after 10 mins relative to control; assay type: functional; details: Oryctolagus cuniculus
Platelet [9] = assay: Antiplatelet activity in rabbit platelet rich plasma assessed as inhibition of thrombin-induced platelet aggregation at 300 uM preincubated for 3 mins followed by thrombin addition measured after 10 mins relative to control; assay type: functional; details: Oryctolagus cuniculus
Platelet [10] = assay: Antiplatelet activity in rabbit platelet rich plasma assessed as inhibition of collagen-induced platelet aggregation at 300 uM preincubated for 3 mins followed by collagen addition measured after 10 mins relative to control; assay type: functional; details: Oryctolagus cuniculus
[11] = Cytotoxicity against BHK21 cells assessed as reduction in cell viability after 48 hrs by MTT assay; assay type: cell-based, Mesocricetus auratus, BHK-21; details: hamster
[12] = Selectivity index, ratio of CC50 for BHK21 cells to IC50 for Candida krusei ATCC 6258; assay type: toxicity; details: hamster, read-out: Ratio CC50/IC50
Candida albicans = assay: Antifungal activity against Candida albicans ATCC 10231 after 24 hrs by CLSI broth microdilution method; assay type: functional, organism-based; details: ATCC 10231, 24 h
Nakaseomyces glabratus = assay: Antifungal activity against Candida glabrata ATCC 90030 after 24 hrs by CLSI broth microdilution method; assay type: functional, organism-based; details: ATCC 90030, 24 h
Platelet [13] = assay: Antiplatelet activity in rabbit platelet rich plasma assessed as inhibition of collagen-induced platelet aggregation at 150 uM preincubated for 3 mins followed by collagen addition measured after 10 mins relative to control; assay type: functional; details: Oryctolagus cuniculus
[14] = Antioxidant activity assessed as DPPH radical scavenging activity at 50 ug/ml relative to control; assay type: functional
Mus musculus [15] = species on record: Mus musculus; assay: Inhibition of HMGB1 in mouse model relative to control; assay type: functional
[16] = target: High mobility group protein B1 (Homo sapiens) (UniProt P09429); assay: Inhibition of HMGB1 (unknown origin) at 10 uM by ELISA relative to control
[17] = Growth inhibition of HUVEC at 5 uM relative to control; assay type: cell-based; details: human, HUVEC cells; read-out: GI
[18] = target: Platelet-activating factor receptor (Homo sapiens) (UniProt P25105); assay: Inhibition of PAF receptor (unknown origin) assessed as reduction in receptor to rabbit platelet binding at 20 ug/ml relative to control
Platelet [19] = assay: Antiplatelet activity in rabbit platelet rich plasma assessed as inhibition of ADP-induced platelet aggregation at 30 ug/ml relative to control; assay type: functional; details: Oryctolagus cuniculus
Platelet [20] = assay: Antiplatelet activity in rabbit platelet rich plasma assessed as inhibition of PAF-induced platelet aggregation at 50 ug/ml relative to control; assay type: functional; details: Oryctolagus cuniculus
[21] = target: T1, Bifunctional epoxide hydrolase 2 (Homo sapiens) (UniProt P34913); assay: Competitive inhibition of soluble epoxide hydrolase (unknown origin) at 100 uM relative to control
T1 sequence (whole entry): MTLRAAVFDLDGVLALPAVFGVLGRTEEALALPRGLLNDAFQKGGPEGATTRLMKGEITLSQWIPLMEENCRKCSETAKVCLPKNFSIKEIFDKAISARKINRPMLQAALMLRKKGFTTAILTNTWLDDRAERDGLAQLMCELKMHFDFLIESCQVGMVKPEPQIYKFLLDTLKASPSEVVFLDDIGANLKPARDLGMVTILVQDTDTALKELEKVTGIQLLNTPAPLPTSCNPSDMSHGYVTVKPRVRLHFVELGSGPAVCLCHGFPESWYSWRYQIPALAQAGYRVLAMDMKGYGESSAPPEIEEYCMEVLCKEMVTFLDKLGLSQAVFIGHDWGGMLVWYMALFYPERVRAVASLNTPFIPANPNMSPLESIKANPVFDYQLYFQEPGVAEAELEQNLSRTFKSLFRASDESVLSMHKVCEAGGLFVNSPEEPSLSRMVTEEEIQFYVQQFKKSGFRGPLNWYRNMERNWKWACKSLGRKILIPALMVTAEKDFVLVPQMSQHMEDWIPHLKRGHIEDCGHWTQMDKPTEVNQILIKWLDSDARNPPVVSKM

[22] = target: T2, Bifunctional epoxide hydrolase 2 (Homo sapiens, UniProt P34913); assay: Competitive inhibition of soluble epoxide hydrolase (unknown origin)
T2 sequence (P34913 whole entry): T1 sequence (whole entry)

[23] = target: Sodium-dependent serotonin transporter (Homo sapiens, UniProt P31645); assay: Displacement of [3H]Imipramine from human 5-HT transporter expressed in HEK-293 cell membranes after 30 mins
Mus musculus [24] = assay: Antinarcotic activity in morphine-dependent C57BL/6 mouse assessed as inhibition of naloxone-induced jumping behavior in mouse at 5 mg/kg , ip after 30 mins relative to control; assay type: functional; details: C57BL/6, ip, 0.5 h
Candida tropicalis = assay: Antifungal activity against Candida tropicalis ATCC 750 after 24 hrs by CLSI broth microdilution method; assay type: functional, organism-based; details: ATCC 750, 24 h
[25] = Selectivity index, ratio of CC50 for BHK21 cells to IC50 for Candida tropicalis ATCC 750; assay type: toxicity; details: hamster, read-out: Ratio CC50/IC50
[26] = target: 5-hydroxytryptamine receptor 1A (Homo sapiens, UniProt P08908); assay: Displacement of [3H]8-OH-DPAT from 5-HT1A receptor (unknown origin) expressed in CHO-K1 cell membranes after 60 mins by microbeta counting method
5-hydroxytryptamine receptor 1A, sequence (P08908 whole entry): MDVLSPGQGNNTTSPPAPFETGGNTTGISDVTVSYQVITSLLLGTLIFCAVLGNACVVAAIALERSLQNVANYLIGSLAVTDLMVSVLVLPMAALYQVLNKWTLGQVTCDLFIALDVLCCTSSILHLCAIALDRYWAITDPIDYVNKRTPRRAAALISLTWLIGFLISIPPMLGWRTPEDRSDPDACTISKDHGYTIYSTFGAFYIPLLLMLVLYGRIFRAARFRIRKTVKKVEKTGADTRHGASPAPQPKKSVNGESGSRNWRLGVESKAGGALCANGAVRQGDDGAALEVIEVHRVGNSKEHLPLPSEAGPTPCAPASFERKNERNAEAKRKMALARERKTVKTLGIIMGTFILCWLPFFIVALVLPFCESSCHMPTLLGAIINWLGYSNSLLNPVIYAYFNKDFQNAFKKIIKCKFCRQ

High mobility group protein B1 (Homo sapiens), sequence (P09429 whole entry): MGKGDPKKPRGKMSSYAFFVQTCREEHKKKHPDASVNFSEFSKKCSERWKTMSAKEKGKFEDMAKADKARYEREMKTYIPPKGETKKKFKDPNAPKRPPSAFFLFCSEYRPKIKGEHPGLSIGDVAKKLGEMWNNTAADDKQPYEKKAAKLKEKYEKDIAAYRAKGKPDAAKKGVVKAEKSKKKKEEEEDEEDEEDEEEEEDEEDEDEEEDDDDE
Platelet-activating factor receptor (Homo sapiens), sequence (P25105 whole entry): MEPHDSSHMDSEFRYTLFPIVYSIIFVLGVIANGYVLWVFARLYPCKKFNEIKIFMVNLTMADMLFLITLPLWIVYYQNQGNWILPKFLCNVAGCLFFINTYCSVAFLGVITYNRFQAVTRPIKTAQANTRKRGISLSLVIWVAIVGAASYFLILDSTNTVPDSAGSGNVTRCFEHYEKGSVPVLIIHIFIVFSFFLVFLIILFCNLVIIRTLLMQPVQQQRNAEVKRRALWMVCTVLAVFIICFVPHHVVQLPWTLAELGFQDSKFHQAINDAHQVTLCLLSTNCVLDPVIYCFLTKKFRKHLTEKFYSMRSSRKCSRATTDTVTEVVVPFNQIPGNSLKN
Sodium-dependent serotonin transporter, sequence (P31645 whole entry): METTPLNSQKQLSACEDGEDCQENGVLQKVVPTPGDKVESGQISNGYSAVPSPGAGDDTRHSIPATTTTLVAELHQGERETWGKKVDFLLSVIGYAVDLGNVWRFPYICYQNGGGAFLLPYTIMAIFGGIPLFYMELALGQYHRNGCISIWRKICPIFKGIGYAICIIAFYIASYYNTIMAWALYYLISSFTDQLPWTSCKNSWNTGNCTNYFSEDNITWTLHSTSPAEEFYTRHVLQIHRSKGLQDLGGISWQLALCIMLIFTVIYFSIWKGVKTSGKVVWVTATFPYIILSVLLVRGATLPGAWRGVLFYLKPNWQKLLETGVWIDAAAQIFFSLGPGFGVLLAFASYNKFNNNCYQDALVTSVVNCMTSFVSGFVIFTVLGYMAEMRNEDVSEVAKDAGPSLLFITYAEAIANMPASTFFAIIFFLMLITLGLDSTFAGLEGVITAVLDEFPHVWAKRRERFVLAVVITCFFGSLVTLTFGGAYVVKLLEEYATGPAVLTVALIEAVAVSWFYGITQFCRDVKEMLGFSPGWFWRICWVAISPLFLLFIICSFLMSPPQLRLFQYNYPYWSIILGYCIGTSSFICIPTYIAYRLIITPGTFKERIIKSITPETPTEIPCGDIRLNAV

COc1cc(/C=C/C(=O)N2CCC=CC2=O)cc(OC)c1OC [PIPLARTINE]
selectivity ratio [1]: 0.42 | IC50 (Candida parapsilosis): 94.6 µM | selectivity ratio [2]: 0.21 | IC50 (Pichia kudriavzevii): 189 µM | selectivity ratio [3]: 0.42 | inhibition at 150 µM (Platelet [4]): 100% | inhibition at 300 µM (Platelet [5]): 100% | IC50 (Staphylococcus aureus): 315 µM | selectivity ratio [6]: 0.12 | inhibition at 300 µM (Platelet [7]): 100% | inhibition at 150 µM (Platelet [8]): 76.4% | inhibition at 300 µM (Platelet [9]): 23.5% | inhibition at 300 µM (Platelet [10]): 100% | CC50 at 48 h [11]: 40.1 µM | selectivity ratio [12]: 0.21 | IC50 (Candida albicans): 94.6 µM | IC50 (Nakaseomyces glabratus): 189 µM | inhibition at 150 µM (Platelet [13]): 100%

COc1ccc(/C=C/COC(=O)/C=C/c2cc(OC)c(OC)c(OC)c2)cc1
inhibition [14]: 18.6%

COc1cc(/C=C/C(=O)Oc2ccc3[nH]c4ccccc4c3c2)cc(OC)c1OC
inhibition (INH) (Mus musculus [15]): 58.9% | inhibition [16]: 70.2%

COc1cc(/C=C/C(=O)Nc2ccc(NC(=O)[C@@H](O)[C@H](N)Cc3ccccc3)cc2)cc(OC)c1OC
inhibition at 5 µM [17]: 93%

COc1cc(/C=C/C(=O)NCCc2ccc(O)cc2)cc(OC)c1OC
inhibition [18]: 12% | inhibition at 30 µg/mL (Platelet [19]): 24.4% | inhibition at 50 µg/mL (Platelet [20]): 28.8%

COc1ccc(C(=O)OC[C@H]2O[C@H](O[C@]3(CO)O[C@H](CO)[C@@H](O)[C@@H]3OC(=O)/C=C/c3cc(OC)c(OC)c(OC)c3)[C@H](O)[C@@H](O)[C@@H]2O)cc1
inhibition [21]: > 100% | IC50 [22]: 6.4 µM

CCCCCCCCNC(=O)/C=C/c1cc(OC)c(OC)c(OC)c1
IC50 [23]: > 10 µM | inhibition in vivo at 5 mg/kg (Mus musculus [24]): 88%

COc1cc(/C=C/C(=O)O[C@H]2[C@H](O)[C@@H](CO)O[C@@]2(CO)O[C@H]2O[C@H](COC(=O)c3ccc(O)cc3)[C@@H](O)[C@H](O)[C@H]2O)cc(OC)c1OC
inhibition [21]: > 100% | IC50 [22]: 9.1 µM

COc1cc(/C=C/C(=O)O[C@H]2[C@H](O)[C@@H](CO)O[C@]2(CO)O[C@H]2O[C@H](CO)[C@@H](OC(=O)c3ccccc3)[C@H](O)[C@H]2O)cc(OC)c1OC
inhibition [21]: > 100% | IC50 [22]: 18 µM

COc1cc(/C=C/C(=O)N2CCOCC2)cc(OC)c1OC
IC50 (Candida tropicalis): 97.7 µM | selectivity ratio [25]: 1.89 | IC50 (Pichia kudriavzevii): 48.8 µM | CC50 at 48 h [11]: 186 µM | selectivity ratio [12]: 3.79

CC(=O)Oc1ccccc1C(=O)O [ASPIRIN]
inhibition at 150 µM (Platelet [4]): 0.3% | inhibition at 300 µM (Platelet [5]): 0.3% | inhibition at 300 µM (Platelet [7]): 100% | inhibition at 150 µM (Platelet [8]): 75% | inhibition at 300 µM (Platelet [10]): 5.8%

COc1cc(/C=C/C(=O)Oc2ccccc2)cc(OC)c1OC
IC50 [26]: 9.4 µM
